# Measured values from patent publication US20120214874A1, “PHARMACEUTICAL FORMULATIONS AND METHODS OF USE” (Nuvo Research Inc., priority 2009, published 2012).
# Test: pH measurement of formulations and panthenol solutions (Experiments A-C, E)
# Type: physicochemical
# Procedure: Experiment A: AMP (0.0006%) was added to NRI-ANA-14 to replicate the AMP concentration in NRI-ANA-08. After AMP addition, the pH of NRI-ANA-08 was 4.1, and the pH of NRI-ANA-14 (+0.0006% AMP) was 4.2. This supported the hypothesis.
# Experiment B: AMP (0.012%) was added to NRI-ANA-14 to replicate the AMP concentration in NRI-ANA-13. After AMP addition, the pH of NRI-ANA-13 was 4.8, and the pH of NRI-ANA-14 (+0.012% AMP) was 4.8. This supported the hypothesis.
# Experiment C: A modified NRI-ANA-14 formulation containing 1.3% TEC and citric acid equivalent to 0.7% TEC was prepared. A control NRI-ANA-14 formulation was subjected to a stability study according to the method set forth in Example 19. After six months at 40° C., the pH of the control NRI-ANA-14 formulation was 2.6, while the pH of the modified NRI-ANA-14 formulation was 1.6. This supported the hypothesis.
# Experiment E: The pH of 10% aqueous solution of D,L- and D-panthenol were measured. The pH of 10% D,L-panthenol was 6.7, but the pH of 10% D-panthenol was 9.4. This supported the hypothesis.
row,Substance,pH of 10% aqueous solution
1,"2,4-dihydroxy-N-(3-hydroxypropyl)-3,3-dimethyl-butanamide [D,L-panthenol]",6.7
2,"(2R)-2,4- dihydroxy-N- (3- hydroxy- propyl)-2,3,3- trimethyl- butanamide [D-panthenol]",9.4
